Assay results from ChEMBL document CHEMBL1136842, “5-Nitrofuran-2-yl derivatives: synthesis and inhibitory activities against growing and dormant mycobacterium species” (Bioorg Med Chem Lett, 2009).
Values after ≈ are worked out from the molar mass of the structure shown.

Experiments:
[1] = test system: Mycolicibacterium phlei; experiment: Antimycobacterial activity against Mycobacterium phlei MTCC 1724 by agar dilution method; assay type: functional
[2] = test system: Mycobacterium tuberculosis; experiment: Antimycobacterial activity against 6-week-starved culture of Mycobacterium tuberculosis H37Rv by agar dilution method; assay type: functional
[3] = Ratio of IC50 for african green monkey Vero cells to MIC for Mycobacterium tuberculosis H37Rv; assay type: functional
[4] = test system: Mycolicibacterium smegmatis; experiment: Antimycobacterial activity against 6-week-starved culture of Mycobacterium smegmatis ATCC 14468 by agar dilution method; assay type: functional
[5] = test system: Mycobacterium tuberculosis; experiment: Antimycobacterial activity against Mycobacterium tuberculosis H37Rv by agar dilution method; assay type: functional
[6] = test system: Vero; experiment: Cytotoxicity against african green monkey Vero cells after 72 hrs by MTT assay; assay type: cell-based; conditions: Chlorocebus sabaeus
[7] = test system: Mycolicibacterium smegmatis; experiment: Antimycobacterial activity against Mycobacterium smegmatis ATCC 14468 by agar dilution method; assay type: functional
[8] = test system: Mycobacterium tuberculosis; experiment: Antimycobacterial activity against log-phase culture of Mycobacterium tuberculosis H37Rv by agar dilution method; assay type: functional
[9] = test system: Mycolicibacterium smegmatis; experiment: Antimycobacterial activity against log-phase culture of Mycobacterium smegmatis ATCC 14468 by agar dilution method; assay type: functional
[10] = test system: Mycobacterium kansasii; experiment: Antimycobacterial activity against Mycobacterium kansasii MTCC 3058 by agar dilution method; assay type: functional
[11] = test system: Mycolicibacterium vaccae; experiment: Antimycobacterial activity against Mycobacterium vaccae MTCC 997 by agar dilution method; assay type: functional
[12] = test system: Mycolicibacterium fortuitum; experiment: Antimycobacterial activity against Mycobacterium fortuitum MTCC 951 by agar dilution method; assay type: functional

Row | SMILES | MIC [1] | MIC [2] | Ratio [3] | MIC [4] | MIC [5] | IC50 [6] | MIC [7] | MIC [8] | MIC [9] | MIC [10] | MIC [11] | MIC [12]
1 | O=[N+]([O-])c1ccc(/C=N/NC(=S)Nc2ncc(Br)cc2Br)o1 | 6.9 µM (≈ 3.1 µg/mL) | 13.9 µM (≈ 6.24 µg/mL) | 632.2 | 124 µM (≈ 55.8 µg/mL) | 0.22 µM (≈ 0.0988 µg/mL) | 139 µM | 6.9 µM (≈ 3.1 µg/mL) | 0.22 µM (≈ 0.0988 µg/mL) | 6.9 µM (≈ 3.1 µg/mL) | 1.7 µM (≈ 0.763 µg/mL) | 3.4 µM (≈ 1.53 µg/mL) | 3.4 µM (≈ 1.53 µg/mL)
2 | O=[N+]([O-])c1ccc(/C=N/NC(=S)Nc2ccc(Cl)cc2)o1 | 9.6 µM (≈ 3.12 µg/mL) |  |  | 134 µM (≈ 43.4 µg/mL) | 1.23 µM (≈ 0.399 µg/mL) | > 192 µM | 19.1 µM (≈ 6.2 µg/mL) |  | 19.1 µM (≈ 6.2 µg/mL) | 38.4 µM (≈ 12.5 µg/mL) | 9.6 µM (≈ 3.12 µg/mL) | 38.4 µM (≈ 12.5 µg/mL)
3 | Cc1cccnc1NC(=S)N/N=C/c1ccc([N+](=O)[O-])o1 | 10.2 µM (≈ 3.11 µg/mL) |  |  |  | 5.1 µM (≈ 1.56 µg/mL) | < 205 µM | 20.5 µM (≈ 6.26 µg/mL) |  |  | 5.1 µM (≈ 1.56 µg/mL) | 20.5 µM (≈ 6.26 µg/mL) | 10.2 µM (≈ 3.11 µg/mL)
4 | CCc1cccc(CC)c1NC(=S)N/N=C/c1ccc([N+](=O)[O-])o1 | 36 µM (≈ 12.5 µg/mL) | 36 µM (≈ 12.5 µg/mL) |  |  | 1.1 µM (≈ 0.381 µg/mL) | > 180 µM | 36 µM (≈ 12.5 µg/mL) | 1.2 µM (≈ 0.416 µg/mL) |  | 36 µM (≈ 12.5 µg/mL) | 72.1 µM (≈ 25 µg/mL) | 72.1 µM (≈ 25 µg/mL)
5 | O=[N+]([O-])c1ccc(/C=N/NC(=S)Nc2ccccc2)o1 | 10.7 µM (≈ 3.11 µg/mL) |  |  |  | 10.7 µM (≈ 3.11 µg/mL) | > 215 µM | 172 µM (≈ 50 µg/mL) |  |  | 5.3 µM (≈ 1.54 µg/mL) | 43 µM (≈ 12.5 µg/mL) | 43 µM (≈ 12.5 µg/mL)
6 | Cc1ccnc(NC(=S)N/N=C/c2ccc([N+](=O)[O-])o2)c1 | 5.1 µM (≈ 1.56 µg/mL) |  |  |  | 2.6 µM (≈ 0.794 µg/mL) | < 205 µM | 20.5 µM (≈ 6.26 µg/mL) |  |  | 5.1 µM (≈ 1.56 µg/mL) | 2.6 µM (≈ 0.794 µg/mL) | 5.1 µM (≈ 1.56 µg/mL)
7 | Cc1ccc(NC(=S)N/N=C/c2ccc([N+](=O)[O-])o2)cc1 | 2.5 µM (≈ 0.761 µg/mL) |  |  |  | 5.1 µM (≈ 1.55 µg/mL) | > 205 µM | 41 µM (≈ 12.5 µg/mL) |  |  | 20.5 µM (≈ 6.24 µg/mL) | 41 µM (≈ 12.5 µg/mL) | 41 µM (≈ 12.5 µg/mL)
8 | O=[N+]([O-])c1ccc(/C=N/NC(=S)Nc2ccccc2Br)o1 | 16.9 µM (≈ 6.24 µg/mL) | 33.8 µM (≈ 12.5 µg/mL) |  |  | 0.54 µM (≈ 0.199 µg/mL) | > 169 µM | 33.8 µM (≈ 12.5 µg/mL) | 0.54 µM (≈ 0.199 µg/mL) |  | 8.4 µM (≈ 3.1 µg/mL) | 16.9 µM (≈ 6.24 µg/mL) | 33.8 µM (≈ 12.5 µg/mL)
9 | Cc1ccc(NC(=S)N/N=C/c2ccc([N+](=O)[O-])o2)c(C)c1 | 4.9 µM (≈ 1.56 µg/mL) |  |  |  | 2.45 µM (≈ 0.78 µg/mL) | > 196 µM | 314 µM (≈ 100 µg/mL) |  |  | 9.8 µM (≈ 3.12 µg/mL) | 39.2 µM (≈ 12.5 µg/mL) | 39.2 µM (≈ 12.5 µg/mL)
10 | Cc1cccc(C)c1NC(=S)N/N=C/c1ccc([N+](=O)[O-])o1 | 9.8 µM (≈ 3.12 µg/mL) |  |  |  | 4.9 µM (≈ 1.56 µg/mL) | > 196 µM | 39.2 µM (≈ 12.5 µg/mL) |  |  | 39.2 µM (≈ 12.5 µg/mL) | 39.2 µM (≈ 12.5 µg/mL) | 39.2 µM (≈ 12.5 µg/mL)
11 | Cc1cc(C)nc(NC(=S)N/N=C/c2ccc([N+](=O)[O-])o2)c1 | 39.1 µM (≈ 12.5 µg/mL) |  |  | 91.2 µM (≈ 29.1 µg/mL) | 2.4 µM (≈ 0.766 µg/mL) | < 196 µM | 4.8 µM (≈ 1.53 µg/mL) |  | 4.8 µM (≈ 1.53 µg/mL) | 39.1 µM (≈ 12.5 µg/mL) | 39.1 µM (≈ 12.5 µg/mL) | 39.1 µM (≈ 12.5 µg/mL)
12 | Cc1ccc(C)c(NC(=S)N/N=C/c2ccc([N+](=O)[O-])o2)c1 | 4.8 µM (≈ 1.53 µg/mL) | 154 µM (≈ 49 µg/mL) |  |  | 1.2 µM (≈ 0.382 µg/mL) | > 196 µM | 157 µM (≈ 50 µg/mL) | 1.1 µM (≈ 0.35 µg/mL) |  | 78.5 µM (≈ 25 µg/mL) | 2.4 µM (≈ 0.764 µg/mL) | 78.5 µM (≈ 25 µg/mL)
13 | O=[N+]([O-])c1ccc(/C=N/NC(=S)Nc2ccccn2)o1 | 6 µM (≈ 1.75 µg/mL) |  |  |  | 12.1 µM (≈ 3.52 µg/mL) | 214 µM | 48.4 µM (≈ 14.1 µg/mL) |  |  | 12.1 µM (≈ 3.52 µg/mL) | 24.2 µM (≈ 7.05 µg/mL) | 48.4 µM (≈ 14.1 µg/mL)
14 | O=[N+]([O-])c1ccc(/C=N/NC(=S)Nc2ccc(Cl)cn2)o1 | 38.3 µM (≈ 12.5 µg/mL) | 38.3 µM (≈ 12.5 µg/mL) |  | 43.2 µM (≈ 14.1 µg/mL) | 1.2 µM (≈ 0.391 µg/mL) | 192 µM | 2.4 µM (≈ 0.782 µg/mL) | 1.2 µM (≈ 0.391 µg/mL) | 2.4 µM (≈ 0.782 µg/mL) | 4.8 µM (≈ 1.56 µg/mL) | 4.8 µM (≈ 1.56 µg/mL) | 38.3 µM (≈ 12.5 µg/mL)
15 | COc1ccc(NC(=S)N/N=C/c2ccc([N+](=O)[O-])o2)c(OC)c1 | 4.4 µM (≈ 1.54 µg/mL) |  |  |  | 4.4 µM (≈ 1.54 µg/mL) | > 178 µM | 35.6 µM (≈ 12.5 µg/mL) |  |  | 35.6 µM (≈ 12.5 µg/mL) | 71.1 µM (≈ 24.9 µg/mL) | 35.6 µM (≈ 12.5 µg/mL)
16 | COc1ccc(NC(=S)N/N=C/c2ccc([N+](=O)[O-])o2)cc1 | 4.85 µM (≈ 1.55 µg/mL) |  |  |  | 9.7 µM (≈ 3.11 µg/mL) | > 195 µM | 39 µM (≈ 12.5 µg/mL) |  |  | 39 µM (≈ 12.5 µg/mL) | 78 µM (≈ 25 µg/mL) | 39 µM (≈ 12.5 µg/mL)
17 | NS(=O)(=O)c1ccc(NC(=S)N/N=C/c2ccc([N+](=O)[O-])o2)cc1 | 16.8 µM (≈ 6.21 µg/mL) |  |  | 75.6 µM (≈ 27.9 µg/mL) | 2.1 µM (≈ 0.776 µg/mL) | < 169 µM | 8.4 µM (≈ 3.1 µg/mL) |  | 8.4 µM (≈ 3.1 µg/mL) | 33.8 µM (≈ 12.5 µg/mL) | 2.1 µM (≈ 0.776 µg/mL) | 33.8 µM (≈ 12.5 µg/mL)
18 | O=C(O)c1cn(C2CC2)c2cc(N3CCNCC3)c(F)cc2c1=O [CIPROFLOXACIN] |  |  |  |  |  | > 188 µM | 2.35 µM (≈ 0.779 µg/mL) |  |  | 9.45 µM (≈ 3.13 µg/mL) |  | 
19 | NNC(=O)c1ccncc1 [ISONIAZID] | 91.2 µM (≈ 12.5 µg/mL) | 729 µM (≈ 100 µg/mL) |  | > 729 µM | 0.66 µM (≈ 0.0905 µg/mL) | > 456 µM | 45.6 µM (≈ 6.25 µg/mL) | 0.66 µM (≈ 0.0905 µg/mL) | 45.6 µM (≈ 6.25 µg/mL) | 182 µM (≈ 25 µg/mL) | 182 µM (≈ 25 µg/mL) | 22.8 µM (≈ 3.13 µg/mL)
20 | CO[C@H]1/C=C/O[C@@]2(C)Oc3c(C)c(O)c4c(O)c(c(/C=N/N5CCN(C)CC5)c(O)c4c3C2=O)NC(=O)/C(C)=C\C=C\[C@H](C)[C@H](O)[C@@H](C)[C@@H](O)[C@@H](C)[C@H](OC(C)=O)[C@@H]1C [RIFAMPIN] | 30.4 µM (≈ 25 µg/mL) | 15.2 µM (≈ 12.5 µg/mL) |  | 22.6 µM (≈ 18.6 µg/mL) | 0.23 µM (≈ 0.189 µg/mL) | > 75.9 µM | 1.89 µM (≈ 1.56 µg/mL) | 0.23 µM (≈ 0.189 µg/mL) | 1.89 µM (≈ 1.56 µg/mL) | 7.59 µM (≈ 6.25 µg/mL) | 3.8 µM (≈ 3.13 µg/mL) | 1.89 µM (≈ 1.56 µg/mL)
